Source: ChEMBL document CHEMBL1201862, “PubChem BioAssay data set” (2004)
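How tested: cells in 96-well plates exposed to compound for 48 hours at five concentrations. GI50 marks 50% less growth.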 Activity calls are given as the source filed them. No stated cut-off is given here; in the data, active = GI50 up to about 1.1 µM and inactive = higher.

Experiments:
Assay in all cases: NCI-60 cell line screen, 48 h
[1] = test system: DLD-1
[2] = test system: DMS-114
[3] = test system: HOP-18
[4] = test system: KM-20L2
[5] = test system: LXFL 529
[6] = test system: M19-MEL
[7] = test system: BT-549
[8] = test system: MDA-N

CC1=CCC2(C#N)CCC1C2O (configuration not stated)
GI50 [1]: > 100 µM (inactive)
GI50 [2]: > 100 µM (inactive)
GI50 [3]: > 100 µM (inactive)
GI50 [4]: 39.4 µM (inactive)
GI50 [5]: > 100 µM (inactive)
GI50 [6]: > 100 µM (inactive)

CCN1CCN(c2nc3ccccc3nc2C(=O)c2ccc(OC)c(OC)c2)CC1
GI50 [7]: 21.2 µM (inactive)
GI50 [8]: 25.4 µM (inactive)

COc1ccc(C(=O)OCC2OC(n3cnc4c(=S)nc[nH]c43)C(OC(=O)c3ccc(OC)cc3)C2OC(=O)c2ccc(OC)cc2)cc1 (configuration not stated)
GI50 [1]: 11.6 µM (inactive)
GI50 [2]: 5.65 µM (inactive)
GI50 [4]: 8.47 µM (inactive)
GI50 [5]: > 100 µM (inactive)
GI50 [6]: > 100 µM (inactive)

CCOC(=O)C(CC(C)C)NC(=O)C(Cc1ccc(N(CCCl)CCCl)cc1)NC(C)=O (configuration not stated)
GI50 [7]: 6.67 µM (inactive)
GI50 [2]: 0.849 µM (active)
GI50 [3]: 14 µM (inactive)
GI50 [4]: 20 µM (inactive)
GI50 [5]: 12.4 µM (inactive)
GI50 [6]: 3.84 µM (inactive)
GI50 [8]: 2.67 µM (inactive)

CO/C=C(/C(=O)OC)[C@@H]1C[C@@H]1c1ccc2ccccc2c1
GI50 [7]: 21.8 µM (inactive)
GI50 [8]: 20.4 µM (inactive)

O=C(/C=C/c1cccs1)c1ccc(C(=O)/C=C/c2cccs2)cc1
GI50 [7]: > 100 µM (inactive)

COC(=O)[C@@H](Nc1ccccc1)[C@@]1(C(=O)OC)SC12c1ccccc1-c1ccccc12
GI50 [7]: 75.5 µM (inactive)
GI50 [8]: 61.1 µM (inactive)

COC(=O)Nc1nc2ccc(S(=O)(=O)SC)cc2[nH]1
GI50 [7]: 10.1 µM (inactive)

COC(=O)c1nc(-c2ccc3c(n2)C(=O)C(=N)C(OC)=C3O)c(N)c(-c2ccc(OC)c(OC)c2O)c1C
GI50 [1]: 1.17 µM (inactive)
GI50 [2]: 0.415 µM (active)
GI50 [3]: 2.03 µM (inactive)
GI50 [4]: 2.24 µM (inactive)
GI50 [6]: 0.254 µM (active)

CN(NC(=O)c1ccc(Cl)cc1)C1=NCCCCN1
GI50 [7]: > 100 µM (inactive)
GI50 [8]: > 100 µM (inactive)

CC1(C)Oc2ccc3c(=O)cc(-c4ccc(F)cc4)oc3c2C1C(=O)O (configuration not stated)
GI50 [8]: > 100 µM (inactive)

Nc1ccc(OCC(O)N2C(=O)c3ccccc3C2=O)cc1 (configuration not stated)
GI50 [8]: > 100 µM (inactive)

NC(Cc1cccc([N+](=O)[O-])c1)C(=O)O (configuration not stated)
GI50 [7]: > 100 µM (inactive)
GI50 [8]: > 100 µM (inactive)

C[Si](C)(OCCS(=O)(=O)O)C1S(=O)(=O)OCCOS1(=O)=O
GI50 [7]: 27.4 µM (inactive)
GI50 [8]: 92 µM (inactive)

O=c1[nH]nc(Cc2ccccc2)n1/N=C/c1ccc([N+](=O)[O-])cc1
GI50 [7]: > 100 µM (inactive)
GI50 [8]: > 100 µM (inactive)

COC1C(O)C(C)OC(O[C@@H]2C[C@H]3CC[C@@H]4[C@H](CC[C@]5(C)[C@@H](C6=CC(=O)OC6)CC[C@]45O)[C@@]3(C)[C@H](O)C2)C1O (some centres not stated)
GI50 [7]: < 0.0246 µM (active)
GI50 [8]: 0.0166 µM (active)

CC1C(c2ccc(N(C)C)cc2)c2cc3c(cc2OC1N1CCCC1)OCO3 (configuration not stated)
GI50 [7]: 38.2 µM (inactive)
GI50 [8]: 14.6 µM (inactive)

COc1ccc(CC2Cc3ccccc3CCN2)cc1OC (configuration not stated)
GI50 [7]: > 50 µM (inactive)
GI50 [8]: > 50 µM (inactive)

CC(=O)C1C(=O)C(=O)N(c2ccc(Cl)c(Cl)c2)C1=O (configuration not stated)
GI50 [7]: > 100 µM (inactive)
GI50 [8]: > 100 µM (inactive)

C=C(CC[C@@H](C)[C@H]1CC[C@@]2(C)C3=C(CC[C@]12C)[C@@]1(C)CC[C@H](O)[C@@H](C)C1CC3)C(C)C (some centres not stated)
GI50 [7]: 1.48 µM (inactive)
GI50 [8]: 1.17 µM (inactive)

NC(=O)C(=O)c1ncn(Cc2ccccc2)c1N
GI50 [8]: > 100 µM (inactive)

CCC1(O)C[C@H]2CN(CCCc3c([nH]c4ccccc34)[C@@](C(=O)OC)(c3cc4c(cc3OC)N(C)C3[C@](O)(C(=O)OC)[C@H](OC(C)=O)[C@]5(CC)C=CCN6CC[C@]43[C@H]65)C2)C1 (some centres not stated)
GI50 [1]: 2.22 µM (inactive)
GI50 [3]: 0.146 µM (active)
GI50 [4]: 0.298 µM (active)
GI50 [5]: 0.581 µM (active)
GI50 [6]: 0.902 µM (active)

ClC1CCC2OOC1O2 (configuration not stated)
GI50 [2]: 43.7 µM (inactive)
GI50 [4]: > 100 µM (inactive)
GI50 [6]: > 100 µM (inactive)

CC1CCCN1CCCOC(=O)c1ccc(OC2C=CCCC2)cc1 (configuration not stated)
GI50 [7]: 40.6 µM (inactive)
GI50 [8]: 39.5 µM (inactive)

COCCOCCOCCOc1ccc(C(C#N)N(CCc2ccccc2)C(=O)c2cc(C(=O)N(CCc3ccccc3)C(C#N)c3ccc(OCCOCCOCCOC)cc3)cc(C(=O)N(CCc3ccccc3)C(C#N)c3ccc(OCCOCCOCCOC)cc3)c2)cc1 (configuration not stated)
GI50 [7]: > 100 µM (inactive)
GI50 [8]: > 100 µM (inactive)

CC[C@@]1(N(C)C)C(=O)OCc2c1cc1n(c2=O)Cc2cc3ccccc3nc2-1
GI50 [7]: 20.3 µM (inactive)

N#CC1=C(N)n2c(s/c(=C\c3ccc(Cl)cc3)c2=O)=C(c2nc3ccccc3[nH]2)C1c1ccc(Cl)cc1 (configuration not stated)
GI50 [1]: 3.65 µM (inactive)
GI50 [2]: 1.99 µM (inactive)
GI50 [4]: 2.21 µM (inactive)
GI50 [5]: 1.9 µM (inactive)
GI50 [6]: 3.04 µM (inactive)

COc1ccc(C(=O)Oc2c(C#N)sc3c2c(=O)n(-c2ccccc2)c(=S)n3-c2ccccc2)cc1
GI50 [8]: > 10 µM (inactive)

COc1ccc2[nH]cc(/C=C(/C)c3ccncc3)c2c1
GI50 [1]: 4.52 µM (inactive)
GI50 [2]: 2.62 µM (inactive)
GI50 [3]: > 100 µM (inactive)
GI50 [6]: 3.72 µM (inactive)

CC(C)C1=CC23CCC4C(C)(C(=O)O)CCCC4(C)C2CC1C1C(=O)N(CCCCCCN2C(=O)C4C5CC6C7(C)CCCC(C)(C(=O)O)C7CCC6(C=C5C(C)C)C4C2=O)C(=O)C13 (configuration not stated)
GI50 [8]: 11.1 µM (inactive)

C#CCCCC(=C)C[C@H](OCc1ccccc1)[C@H]1OC(=O)[C@@H]1C
GI50 [7]: > 100 µM (inactive)
GI50 [8]: 22.9 µM (inactive)

Cc1ccc(S(=O)(=O)C2=c3ncccc3=C3C(=O)c4ccccc4C(=O)C32)cc1 (configuration not stated)
GI50 [7]: 39.8 µM (inactive)
GI50 [1]: < 0.01 µM (active)
GI50 [2]: 65 µM (inactive)
GI50 [3]: > 100 µM (inactive)
GI50 [5]: 83.8 µM (inactive)
GI50 [6]: < 0.01 µM (active)
GI50 [8]: > 100 µM (inactive)

C1=CN2C[n+]3ccc4ccccc4c3N=C2c2ccccc21
GI50 [7]: 7.98 µM (inactive)
GI50 [8]: 2.26 µM (inactive)
